Results on 36 compounds are retold here after a melting point compilation (Tetko et al.; mined from patent text by program, amines drawn as free bases though some values may be those of a salt).

Each structure is given as a SMILES string.

Compound `COc1ccc(OC)c2c(C=O)c3ccccc3c(C=O)c12` had a melting point of 208 to 212 °C.

Compound `CCOC(=O)C(CCC#N)(C(=O)OCC)c1ccc([N+](=O)[O-])cn1` came in with a melting point of 59.5 to 61 °C.

`OC(CCCn1ccnc1)c1ccccc1` (stereo unspecified) displayed a melting point of 205 to 207 °C. As for `CCOc1c(OC)cccc1C(=O)Nc1ccc(C(=O)OC)cc1C(=O)OC`, the figure is 113 to 115 °C; as for `Cc1ccccc1CC1CNC(=O)O1` (stereo unspecified), 121 to 122 °C; as for `COc1cc(OC)cc(-c2nc(-c3ccccn3)no2)c1`, 145 to 148 °C. `C=CCNC(=O)C(C#N)C(=O)C1CC1` (stereo unspecified) displayed a melting point of 72 to 73.5 °C.

On to `CC(=O)OCC(OC(C)=O)C1OC(OC(C)=O)(C(=O)O)CC(OC(C)=O)C1OC(C)=O` (stereo unspecified), for which the melting point was in the range of 132 to 133 °C.

The compound `CNc1cc(C(=O)Nc2c(C)cc(C(F)(C(F)(F)F)C(F)(F)F)cc2C)ccc1C#N` displayed a melting point of 204 to 206 °C.

As to `CC(C(=O)O)c1ccc2c(c1)C(=O)c1ccc(Cl)cc1CS2` (stereo unspecified), the melting point was 137 to 138 °C.

`NC1Cc2ccccc2CN(CC(=O)O)C1=O` (stereo unspecified) registered a melting point of 266 to 268 °C. Consider `Nc1ccccc1C(=O)c1ccc(F)cc1`, for which the melting point was in the range of 125 to 127 °C.

`CC(=O)c1ccc2c(c1)C(c1ccccc1F)=NC(C)C(=O)N2` (stereo unspecified) yielded a melting point of 203 °C. The result for `CNc1ccnc(C2=Cc3ccccc3CC2)c1` reads 106 to 107 °C; that for `O=[N+]([O-])c1cc(C(F)(F)F)c(Br)cc1-n1ccnc1`, 149 to 157 °C. `Cc1ccc(C(CCCOC(=O)Nc2ccccc2)=NNC(N)=S)cc1` had a melting point of 170 to 173 °C. In turn, `CNc1nc(-c2cccc(NC(=O)CCc3ccccc3)c2)c2cc(OC)c(OC)cc2n1` registered a melting point of 180 to 182 °C. As for `O=C(Nc1ccc(F)cc1)c1ccccc1C(c1ccc(O)cc1)c1ccc(O)cc1`, the melting point was 122 to 124 °C. On to `COc1cc(CCC(=O)C2=C(Cl)CCC2)cc(OS(=O)(=O)c2ccc(C)cc2)c1OC`, for which the melting point worked out at 73 °C. Compound `S=C(SSC(=S)c1ccccc1)c1ccccc1` came in with a melting point of 89 to 91 °C. In turn, `CCOC(=O)c1cc2c(OC)cccc2[nH]1` displayed a melting point of 168 to 170 °C. As for `C=CCC(C(O)=Nc1cc(Cl)cc(Cl)c1)C(C)C(=O)O` (stereo unspecified), the figure is 131 °C.

`COC(=O)c1cc(/C=N/O)ccc1[N+](=O)[O-]` returned a melting point of 116 °C.

In turn, `Cc1cc(Cl)nc(S(C)(=O)=O)n1` came in with a melting point of 72 °C.

The compound `O=C1c2ccccc2-c2c1c1ccccc1c(=O)n2CCCCCCCCCCCCn1c2c(c3ccccc3c1=O)C(=O)c1ccccc1-2` registered a melting point of 226 to 228 °C. Compound `CC(C)(C)OC(=O)N1CCCC(c2nc3c(N[C@H]4[C@@H](C(N)=O)[C@@H]5C=C[C@H]4C5)ccnc3[nH]2)C1` (stereo partly specified) displayed a melting point of 222 to 225 °C. On to `Cc1cn(C[C@H]2CN(c3ccc(-c4ccc(C#N)nc4)c(F)c3)C(=O)O2)nn1`, for which the melting point fell in the range of 210 to 212 °C. In turn, `Cc1cc(F)c(N)cc1-n1cc(C(=O)O)c(=O)c2cc(F)c(N3CC(O)C3)c(C)c21` registered a melting point of 147 to 151 °C. As for `CNC(=O)[C@H]1CN(c2cc(F)c3c(c2)CCC(=O)N3C)C(=O)O1`, the melting point fell in the range of 264 to 265 °C. Turning to `OCCOc1ccsc1`, the melting point fell in the range of 38 to 39 °C.

With `CCOC(=O)Oc1ccc(/C=C/C(=O)O)cc1`, the melting point is 173 to 176 °C. As for `O=Cc1cccc2ncc(-c3ccccc3)cc12`, the melting point fell in the range of 122 to 124 °C. Take `CC(=O)CCc1c(C)c(OC(C)=O)c(C)c(C)c1OC(C)=O`: the melting point was 85 to 87.5 °C.

With `COc1ccc(C2=CCN(CCC(O)c3ccc(C#N)cc3)CC2)cc1` (stereo unspecified), the melting point was in the range of 144 to 145 °C.

`O=C(O)/C(=N/O)c1ccc(OCCOc2ccc3ccccc3c2)s1` gave a melting point of 138 to 140 °C.

Compound `COc1ccc(-c2cc(C(F)(F)F)nn2-c2ccc(S(N)(=O)=O)cc2)cc1I` yielded a melting point of 220 to 224 °C.

The melting point is the temperature of the solid-liquid transition.
